Columns and labels:
c-MET = c-MET (Homo sapiens, UniProt P08581); assay: Enzymatic assay (ADP-Glo kinase reaction), c-MET; assay type: biochemical; settings: 10 μM ATP, 60 min, ADP-GLO luminescence
Method in brief: (§1)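 For both AXL and c-MET, reactions in tyrosine kinase buffer used 0.2 μg/μL poly(Glu4,Tyr1) and 10 μM ATP with serially diluted inhibitor, 60 min at room temperature. ADP formed was read by ADP-Glo luminescence after 40 min reagent incubation.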

AXL = target: T1, AXL (Homo sapiens, UniProt P30530); assay: Enzymatic assay (ADP-Glo kinase reaction), AXL; assay type: biochemical; settings: 10 μM ATP, 60 min, ADP-GLO luminescence
T1 sequence (P30530 26-894): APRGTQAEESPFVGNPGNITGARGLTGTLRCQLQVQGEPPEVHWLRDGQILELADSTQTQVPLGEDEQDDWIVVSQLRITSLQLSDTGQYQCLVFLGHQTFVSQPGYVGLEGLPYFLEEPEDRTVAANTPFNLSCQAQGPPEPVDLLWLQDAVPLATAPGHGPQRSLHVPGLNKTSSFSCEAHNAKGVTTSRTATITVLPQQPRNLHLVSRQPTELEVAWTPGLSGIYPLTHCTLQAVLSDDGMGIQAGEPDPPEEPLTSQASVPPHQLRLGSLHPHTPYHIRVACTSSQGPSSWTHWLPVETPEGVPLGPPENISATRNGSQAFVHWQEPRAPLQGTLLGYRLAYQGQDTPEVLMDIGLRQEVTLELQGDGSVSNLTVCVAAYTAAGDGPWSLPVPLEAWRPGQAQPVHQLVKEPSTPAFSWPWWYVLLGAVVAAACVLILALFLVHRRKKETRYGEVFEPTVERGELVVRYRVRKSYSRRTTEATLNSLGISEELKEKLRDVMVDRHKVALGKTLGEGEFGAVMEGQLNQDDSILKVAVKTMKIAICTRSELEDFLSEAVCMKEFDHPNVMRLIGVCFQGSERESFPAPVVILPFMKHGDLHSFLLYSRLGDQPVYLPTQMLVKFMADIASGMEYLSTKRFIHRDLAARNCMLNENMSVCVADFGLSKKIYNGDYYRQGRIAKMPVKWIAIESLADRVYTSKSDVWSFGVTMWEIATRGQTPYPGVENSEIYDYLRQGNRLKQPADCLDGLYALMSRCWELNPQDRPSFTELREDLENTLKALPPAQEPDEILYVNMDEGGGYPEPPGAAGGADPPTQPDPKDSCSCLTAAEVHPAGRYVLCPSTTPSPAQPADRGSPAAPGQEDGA
Method in brief: as §1

MER = target: T2, MER (Homo sapiens, UniProt Q12866); assay: Enzymatic assay (ADP-Glo kinase reaction), MER; assay type: biochemical; settings: 10 μM ATP, 60 min, ADP-GLO luminescence
T2 sequence (Q12866 21-999): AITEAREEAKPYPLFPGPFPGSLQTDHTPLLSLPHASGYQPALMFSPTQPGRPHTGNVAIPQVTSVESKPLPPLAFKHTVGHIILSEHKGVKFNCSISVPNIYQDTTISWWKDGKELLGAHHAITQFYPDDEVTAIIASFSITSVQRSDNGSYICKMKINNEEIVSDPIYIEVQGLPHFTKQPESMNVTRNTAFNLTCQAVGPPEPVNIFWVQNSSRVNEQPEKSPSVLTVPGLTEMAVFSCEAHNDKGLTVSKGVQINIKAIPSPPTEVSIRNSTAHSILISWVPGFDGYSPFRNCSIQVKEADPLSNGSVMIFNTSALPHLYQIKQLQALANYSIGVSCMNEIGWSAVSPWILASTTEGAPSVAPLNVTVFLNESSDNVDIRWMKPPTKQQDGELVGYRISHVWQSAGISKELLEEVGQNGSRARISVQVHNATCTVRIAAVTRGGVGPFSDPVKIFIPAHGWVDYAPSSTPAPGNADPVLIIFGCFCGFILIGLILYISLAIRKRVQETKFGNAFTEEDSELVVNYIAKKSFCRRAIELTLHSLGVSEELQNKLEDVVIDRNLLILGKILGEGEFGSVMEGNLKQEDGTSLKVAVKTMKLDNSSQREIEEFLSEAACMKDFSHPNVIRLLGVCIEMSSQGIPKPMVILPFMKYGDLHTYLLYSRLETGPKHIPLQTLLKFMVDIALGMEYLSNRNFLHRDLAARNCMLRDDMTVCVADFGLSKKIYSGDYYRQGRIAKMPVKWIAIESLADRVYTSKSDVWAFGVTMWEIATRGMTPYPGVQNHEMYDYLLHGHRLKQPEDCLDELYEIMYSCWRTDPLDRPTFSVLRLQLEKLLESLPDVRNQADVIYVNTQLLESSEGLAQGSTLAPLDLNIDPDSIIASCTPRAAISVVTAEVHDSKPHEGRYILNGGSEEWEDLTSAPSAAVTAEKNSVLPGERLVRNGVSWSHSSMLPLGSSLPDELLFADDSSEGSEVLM
Method in brief: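 ADP-Glo luminescence assay of MER in tyrosine kinase buffer with 0.2 μg/μL poly(Glu4,Tyr1) substrate and 10 μM ATP. Serially diluted inhibitor reacted 60 min at room temperature. IC50 taken from luminescence after ADP-Glo and detection steps.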

HCC827OR = assay: Cell viability assay (CellTiter-Glo 2.0), osimertinib-resistant HCC827/OR cells; assay type: cell-based, human
Text: (§2) To explore c-MET and AXL mechanisms of EGFR TKI resistance, resistant cells of the EGFR TKI hypersensitive EGFR exon 19 mutant NSCLC cell line, HCC827 and PC9 were generated by exposing these cells to increasing concentrations of EGFR TKI for over 3 months.
(§3) Gefitinib-resistant cells were referred to as HCC827/GR. […] Osimertinib-resistant cells were referred to as HCC827/OR.

PC9ER = assay: Cell viability assay (CellTiter-Glo 2.0), erlotinib-resistant PC9/ER cells; assay type: cell-based; settings: 72 h, combination of EGFR TKI and inhibitor of Formula (I), read-out: Relative cell viability, IC50 (nM) PC9ER
Text: as §2, §3

HCC827ER = assay: Cell viability assay (CellTiter-Glo 2.0), erlotinib-resistant HCC827/ER cells; assay type: cell-based, human; settings: 72 h, combination of EGFR TKI and inhibitor of Formula (I), read-out: Relative cell viability, IC50 (nM) HCC827ER
Text: as §2, §3

HCC827GR = assay: Cell viability assay (CellTiter-Glo 2.0), gefitinib-resistant HCC827/GR cells; assay type: cell-based, human; settings: 72 h, combination of EGFR TKI and inhibitor of Formula (I), read-out: Relative cell viability, IC50 (nM) HCC827GR
Text: as §2
The human cell line HCC827 was purchased from the American Type Culture Collection (Manassas, VA), and the PC9 cell line was obtained from RIKEN Cell Bank (Ibaraki, Japan). […] Gefitinib-resistant cells were referred to as HCC827/GR. […] Osimertinib-resistant cells were referred to as HCC827/OR.
(§4) Cell viability assays were carried out by plating 1,000 cells per well of HCC827 or PC9 resistant cells, respectively, into white transparent-bottom 384-well plates. The cells were treated with each TKI across a 10-dose range from 1 nM to 10,000 nM. After 72 h of drug treatment, cell viability was measured using the CellTiter-Glo 2.0 assay (Promega, Madison, WI).
as §4

c-MET, sequence (P08581 25-1390): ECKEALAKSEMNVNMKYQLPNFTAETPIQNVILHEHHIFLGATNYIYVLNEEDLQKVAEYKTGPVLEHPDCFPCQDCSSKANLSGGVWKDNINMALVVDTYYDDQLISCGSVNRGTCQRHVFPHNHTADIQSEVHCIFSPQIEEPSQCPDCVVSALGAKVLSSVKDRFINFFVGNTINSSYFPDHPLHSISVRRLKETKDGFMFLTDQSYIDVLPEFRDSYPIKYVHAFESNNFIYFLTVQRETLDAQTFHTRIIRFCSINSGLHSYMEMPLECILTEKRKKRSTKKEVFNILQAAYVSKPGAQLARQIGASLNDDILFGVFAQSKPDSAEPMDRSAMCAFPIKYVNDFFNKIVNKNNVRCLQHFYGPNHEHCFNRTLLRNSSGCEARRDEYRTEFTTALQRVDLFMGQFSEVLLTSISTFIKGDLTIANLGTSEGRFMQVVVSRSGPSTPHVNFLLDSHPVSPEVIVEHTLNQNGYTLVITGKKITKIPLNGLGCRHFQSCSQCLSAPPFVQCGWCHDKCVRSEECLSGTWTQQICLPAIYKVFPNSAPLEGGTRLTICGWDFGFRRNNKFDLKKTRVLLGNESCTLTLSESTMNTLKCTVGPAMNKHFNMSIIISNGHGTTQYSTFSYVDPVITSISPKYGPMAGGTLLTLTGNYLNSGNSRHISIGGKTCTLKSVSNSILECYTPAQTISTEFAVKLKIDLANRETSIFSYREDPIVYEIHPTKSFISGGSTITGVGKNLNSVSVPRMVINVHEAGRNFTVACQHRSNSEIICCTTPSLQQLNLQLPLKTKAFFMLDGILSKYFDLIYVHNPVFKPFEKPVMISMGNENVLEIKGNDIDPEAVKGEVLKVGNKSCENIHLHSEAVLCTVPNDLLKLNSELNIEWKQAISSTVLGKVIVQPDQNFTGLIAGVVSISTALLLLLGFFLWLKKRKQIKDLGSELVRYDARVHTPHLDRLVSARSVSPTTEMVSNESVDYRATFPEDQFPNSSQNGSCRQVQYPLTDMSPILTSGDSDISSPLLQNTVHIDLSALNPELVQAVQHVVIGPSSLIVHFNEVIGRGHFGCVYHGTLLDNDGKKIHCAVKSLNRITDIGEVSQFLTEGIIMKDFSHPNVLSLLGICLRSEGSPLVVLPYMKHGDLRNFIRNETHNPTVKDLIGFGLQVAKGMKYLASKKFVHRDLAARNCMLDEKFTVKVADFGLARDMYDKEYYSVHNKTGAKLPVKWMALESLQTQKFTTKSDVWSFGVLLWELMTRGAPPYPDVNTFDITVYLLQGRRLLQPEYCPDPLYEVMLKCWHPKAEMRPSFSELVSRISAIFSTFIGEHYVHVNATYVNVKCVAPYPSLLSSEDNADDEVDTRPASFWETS

Row | Compound | IC50 (c-MET) | IC50 (AXL) | IC50 (MER) | fold higher resistance than the parental cells, HCC827/OR (HCC827OR; HCC827/OR vs HCC827) | IC50 (PC9ER) | IC50 (HCC827ER) | IC50 (HCC827GR) | IC50 (HCC827OR; 72 h, combination of EGFR TKI and inhibitor of Formula (I), EGFR TKI-resistant cells, read-out: Relative cell viability, IC50 (nM) HCC827OR)
1 | CN1CCN(C(C)(C)C#Cc2c(Oc3ccc(NC(=O)c4cn(C5CCOCC5)c(=O)n(-c5ccc(F)cc5)c4=O)cc3F)ccnc2N)CC1 [Example 57, N-(4-(2-amino-3-(3-methyl-3-(4-methylpiperazin-1-yl)but-1-ynyl)pyridin-4-yloxy)-3-fluorophenyl)-3-(4-fluorophenyl)-2,4-dioxo-1-(tetrahydro-2H-pyran-4-yl)-1,2,3,4-tetrahydropyrimidine-5-carboxamide] | < 100 nM | < 100 nM | < 10 nM | – | – | – | – | –
2 | CC(C)(C#Cc1c(Oc2ccc(NC(=O)c3cn(C4CCOCC4)c(=O)n(-c4ccc(F)cc4)c3=O)cc2F)ccnc1N)N1CCNCC1 [Example 58, N-(4-(2-amino-3-(3-methyl-3-(piperazin-1-yl)but-1-ynyl)pyridin-4-yloxy)-3-fluorophenyl)-3-(4-fluorophenyl)-2,4-dioxo-1-(tetrahydro-2H-pyran-4-yl)-1,2,3,4-tetrahydropyrimidine-5-carboxamide] | < 100 nM | < 100 nM | < 10 nM | – | – | – | – | –
3 | Nc1nccc(Oc2ccc(NC(=O)c3cn(C4CCOCC4)c(=O)n(-c4ccc(F)cc4)c3=O)cc2F)c1C#CCC1CCNCC1 [Example 59, N-(4-(2-amino-3-(3-(piperidin-4-yl)prop-1-ynyl)pyridin-4-yloxy)-3-fluorophenyl)-3-(4-fluorophenyl)-2,4-dioxo-1-(tetrahydro-2H-pyran-4-yl)-1,2,3,4-tetrahydropyrimidine-5-carboxamide] | < 100 nM | < 100 nM | < 10 nM | – | – | – | – | –
4 | CN1CCC(CC#Cc2c(Oc3ccc(NC(=O)c4cn(C5CCOCC5)c(=O)n(-c5ccc(F)cc5)c4=O)cc3F)ccnc2N)CC1 [Example 60, N-(4-(2-amino-3-(3-(1-methylpiperidin-4-yl)prop-1-ynyl)pyridin-4-yloxy)-3-fluorophenyl)-3-(4-fluorophenyl)-2,4-dioxo-1-(tetrahydro-2H-pyran-4-yl)-1,2,3,4-tetrahydropyrimidine-5-carboxamide] | < 100 nM | < 10 nM | < 10 nM | – | – | – | – | –
5 | C=CCn1cc(C(=O)Nc2ccc(Oc3ccnc(N)c3C#CCN3CCOCC3)c(F)c2)c(=O)n(CC=C)c1=O [Example 67, 1,3-diallyl-N-(4-(2-amino-3-(3-morpholinoprop-1-ynyl)pyridin-4-yloxy)-3-fluorophenyl)-2,4-dioxo-1,2,3,4-tetrahydropyrimidine-5-carboxamide] | < 100 nM | < 10 nM | < 10 nM | – | – | – | – | –
6 | C=CCn1cc(C(=O)Nc2ccc(Oc3ccnc(N)c3C#CC(C)(C)N3CCN(C)CC3)c(F)c2)c(=O)n(CC=C)c1=O [Example 68, 1,3-diallyl-N-(4-(2-amino-3-(3-methyl-3-(4-methylpiperazin-1-yl)but-1-ynyl)pyridin-4-yloxy)-3-fluorophenyl)-2,4-dioxo-1,2,3,4-tetrahydropyrimidine-5-carboxamide] | < 1000 nM | < 1000 nM | < 100 nM | – | – | – | – | –
7 | C=CCn1cc(C(=O)Nc2ccc(Oc3ccnc(N)c3C#CCC3CCN(C)CC3)c(F)c2)c(=O)n(CC=C)c1=O [Example 69, 1,3-diallyl-N-(4-(2-amino-3-(3-(1-methylpiperdin-4-yl)prop-1-ynyl)pyridin-4-yloxy)-3-fluorophenyl)-2,4-dioxo-1,2,3,4-tetrahydropyrimidine-5-carboxamide] | < 1000 nM | < 100 nM | < 100 nM | – | – | – | – | –
8 | C=CCn1cc(C(=O)Nc2ccc(Oc3ccnc(N)c3C#CC(C)(C)N3CCOCC3)c(F)c2)c(=O)n(CC=C)c1=O [Example 70, 1,3-diallyl-N-(4-(2-amino-3-(3-methyl-3-morpholinobut-1-ynyl)pyridin-4-yloxy)-3-fluorophenyl)-2,4-dioxo-1,2,3,4-tetrahydropyrimidine-5-carboxamide] | < 1000 nM | < 1000 nM | < 10 nM | – | – | – | – | –
9 | C=CCn1cc(C(=O)Nc2ccc(Oc3ccnc(N)c3C#CCC3CCNCC3)c(F)c2)c(=O)n(CC=C)c1=O [Example 71, 1,3-dialyl-N-(4-(2-amino-3-(3-(piperidin-4-yl)prop-1-ynyl)pyridin-4-yloxy)-3-fluorophenyl)-2,4-dioxo-1,2,3,4-tetrahydropyrimidine-5-carboxamide] | < 100 nM | < 100 nM | < 10 nM | – | – | – | – | –
10 | C=CC(=O)Nc1cc(Nc2nccc(-c3cn(C)c4ccccc34)n2)c(OC)cc1N(C)CCN(C)C [osimertinib, reference compound] | – | – | – | 3,000 fold | – | – | – | –
11 | N-(4-(2-amino-3-(3-piperidin-4-yl)prop-1-ynyl)pyridin-4-yloxy)-3-fluorophenyl)-3-cyclohexyl-1-ethyl-2,4-dioxo-1,2,3,4-tetrahydropyrimidine-5-carboxamide [Example 65] | – | – | – | – | < 1000 nM | < 1000 nM | < 1000 nM | < 10000 nM

— patent publication US20250171426A1, “PYRIMIDINEDIONE-BASED COMPOUNDS AS AXL, C-MET, AND MER INHIBITORS AND METHODS OF USE THEREOF” (CMG Pharmaceutical Co., Ltd., priority 2022, published 2025)
